From ChEMBL document CHEMBL6087451, “Design, Synthesis, and Biological Evaluation of 2-Arylaminopyrimidine Derivatives as Dual Cathepsin L and JAK Inhibitors for the Treatment of Acute Lung Injury” (J Med Chem, 2025)
Calls of active or inactive are those of the source. The rule behind the calls is not given here.

Tests used:
[1] = Cmax in Sprague-Dawley rat at 3.5 mg/kg, iv measured for 24 hrs by LC-MS/MS analysis; type: ADME, organism-based; conditions: in vivo
Mus musculus [2] = test: Anti-inflammatory activity in C57BL/6 mouse model of LPS-induced acute lung injury assessed as decrease in disruption of epithelial cell structures in lung at 10 mg/kg, ip treated for 3 days followed by LPS treatment after 1 hr post-compound administration on fourth day measured after 18 hrs post-LPS treatment by H and E staining based analysis; type: functional, organism-based; conditions: time 91.0 hrs
Procathepsin L [3] = target: T1, Procathepsin L (Homo sapiens, UniProt P07711); test: Inhibition of recombinant human Cat L using f Z-Phe-Arg-AMC as substrate preincubated for 30 mins followed by substrate addition
Target sequence in this assay (P07711 whole entry): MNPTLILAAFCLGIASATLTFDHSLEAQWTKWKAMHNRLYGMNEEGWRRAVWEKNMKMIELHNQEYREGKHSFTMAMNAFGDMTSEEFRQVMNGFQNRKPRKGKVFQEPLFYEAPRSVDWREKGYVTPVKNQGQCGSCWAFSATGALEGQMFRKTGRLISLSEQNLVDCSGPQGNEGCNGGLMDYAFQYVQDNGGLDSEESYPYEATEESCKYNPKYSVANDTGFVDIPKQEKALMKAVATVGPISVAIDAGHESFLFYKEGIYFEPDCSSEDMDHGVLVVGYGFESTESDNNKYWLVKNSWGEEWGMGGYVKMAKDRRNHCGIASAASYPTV

[4] = Cmax in Sprague-Dawley rat at 3.5 mg/kg, ip measured for 24 hrs by LC-MS/MS analysis; type: ADME, organism-based; conditions: in vivo
Procathepsin L [5] = target: T1, Procathepsin L; test: Inhibition of CTSL maturation in HBE cells pretreated for 30 mis followed by LPS treatment for 16 hrs by Western blot analysis; type: cell-based; conditions: dose 0.5-5 µM, time 16.5 hrs
Target sequence in this assay (P07711 114-333 limits assumed): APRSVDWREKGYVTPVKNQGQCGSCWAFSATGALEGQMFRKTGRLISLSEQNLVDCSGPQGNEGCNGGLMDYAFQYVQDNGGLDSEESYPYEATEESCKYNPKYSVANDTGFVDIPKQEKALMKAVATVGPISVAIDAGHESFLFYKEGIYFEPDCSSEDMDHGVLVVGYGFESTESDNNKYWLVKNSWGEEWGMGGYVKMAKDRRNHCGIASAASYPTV

RAW264.7 [6] = test: Cytotoxicity against mouse RAW264.7 cells assessed as cell viability at 0.5 to 5 uM; type: toxicity, cell-based; conditions: raw264.7, 5 µM, dose 0.5-5 µM
[7] = Half life in Sprague-Dawley rat at 3.5 mg/kg, po measured for 24 hrs by LC-MS/MS analysis; type: ADME, organism-based; conditions: in vivo
cells [8] = conditions: Homo sapiens, HBE
Description: Anti-inflammatory activity against HBE cells assessed as inhibition of LPS-induced IL-8 level pretreated for 30 mins followed by LPS treatment for 24 hrs by ELISA

Mus musculus [9] = test: Anti-inflammatory activity in C57BL/6 mouse model of LPS-induced acute lung injury assessed as decrease in wet to dry ratio in lung at 10 mg/kg, ip treated for 3 days followed by LPS treatment after 1 hr post-compound administration on fourth day measured after 18 hrs post-LPS treatment; type: functional, organism-based; conditions: time 91.0 hrs
RAW264.7 [10] = test: Anti-inflammatory activity against mouse RAW264.7 cells assessed as inhibition of LPS-induced IL-6 mRNA level at 50 to 500 nM by RT-qPCR analysis; type: functional, cell-based; conditions: dose 50-500 nM
HBE [11] = test: Anti-inflammatory activity against HBE cells assessed as inhibition of LPS-induced p-p65 level pretreated for 30 mis followed by LPS treatment for 16 hrs by Western blot analysis; type: functional, cell-based; conditions: Homo sapiens, dose 0.5-5 µM, time 16.5 hrs
Mus musculus [12] = test: Anti-inflammatory activity in C57BL/6 mouse model of LPS-induced acute lung injury assessed as decrease in pulmonary edema in lung at 10 mg/kg, ip treated for 3 days followed by LPS treatment after 1 hr post-compound administration on fourth day measured after 18 hrs post-LPS treatment by H and E staining based analysis; type: functional, organism-based; conditions: time 91.0 hrs
cells [13] = conditions: Homo sapiens, HBE; remark: listed apart in the source
Description: Anti-inflammatory activity against HBE cells assessed as inhibition of LPS-induced IL-6 level pretreated for 30 mins followed by LPS treatment for 24 hrs by ELISA

[14] = Anti-inflammatory activity against HBE cells assessed as inhibition of LPS-induced IL-6 level at 5 uM pretreated for 30 mins followed by LPS treatment for 24 hrs by ELISA relative to control; type: functional; conditions: Homo sapiens, time 24.5 hrs
RAW264.7 [15] = test: Anti-inflammatory activity against mouse RAW264.7 cells assessed as inhibition of LPS-induced IL-1beta level
[16] = Half life in Sprague-Dawley rat at 3.5 mg/kg, ip measured for 24 hrs by LC-MS/MS analysis; type: ADME, organism-based; conditions: in vivo
[17] = AUC (0 to infinity) in Sprague-Dawley rat at 3.5 mg/kg, ip measured for 24 hrs by LC-MS/MS analysis; type: ADME, organism-based; conditions: in vivo
RAW264.7 [18] = test: Anti-inflammatory activity against mouse RAW264.7 cells assessed as inhibition of LPS-induced TNF-alpha mRNA level at 50 to 500 nM by RT-qPCR analysis; type: functional, cell-based; conditions: dose 50-500 nM
[19] = Anti-inflammatory activity against HBE cells assessed as inhibition of LPS-induced IL-8 level at 5 uM pretreated for 30 mins followed by LPS treatment for 24 hrs by ELISA relative to control; type: functional; conditions: Homo sapiens, time 24.5 hrs
[20] = AUC (0 to infinity) in Sprague-Dawley rat at 3.5 mg/kg, po measured for 24 hrs by LC-MS/MS analysis; type: ADME, organism-based; conditions: in vivo
RAW264.7 [21] = test: Anti-inflammatory activity against mouse RAW264.7 cells assessed as inhibition of LPS-induced iNOS level by Western blot analysis; type: functional, cell-based; conditions: dose 50-500 nM
[22] = AUC (0 to infinity) in Sprague-Dawley rat at 3.5 mg/kg, iv measured for 24 hrs by LC-MS/MS analysis; type: ADME, organism-based; conditions: in vivo
HBE [23] = test: Anti-inflammatory activity against HBE cells assessed as inhibition of LPS-induced p-Ikappa-Balpha level pretreated for 30 mis followed by LPS treatment for 16 hrs by Western blot analysis; type: functional, cell-based; conditions: Homo sapiens, dose 0.5-5 µM, time 16.5 hrs
RAW264.7 [24] = test: Anti-inflammatory activity against mouse RAW264.7 cells assessed as inhibition of LPS-induced IL-1beta mRNA level at 50 to 500 nM by RT-qPCR analysis; type: functional, cell-based; conditions: dose 50-500 nM
[25] = Cmax in Sprague-Dawley rat at 3.5 mg/kg, po measured for 24 hrs by LC-MS/MS analysis; type: ADME, organism-based; conditions: in vivo
[26] = AUC (0 to t) in Sprague-Dawley rat at 3.5 mg/kg, iv measured for 24 hrs by LC-MS/MS analysis; type: ADME, organism-based; conditions: in vivo
Mus musculus [27] = test: Anti-inflammatory activity in C57BL/6 mouse model of LPS-induced acute lung injury assessed as decrease in inflammatory cell infiltration in lung at 10 mg/kg, ip treated for 3 days followed by LPS treatment after 1 hr post-compound administration on fourth day measured after 18 hrs post-LPS treatment by H and E staining based analysis; type: functional, organism-based; conditions: time 91.0 hrs
Mus musculus [28] = test: Anti-inflammatory activity in C57BL/6 mouse model of LPS-induced acute lung injury assessed as decrease in disruption of endothelial cell structures in lung at 10 mg/kg, ip treated for 3 days followed by LPS treatment after 1 hr post-compound administration on fourth day measured after 18 hrs post-LPS treatment by H and E staining based analysis; type: functional, organism-based; conditions: time 91.0 hrs
Mus musculus [29] = test: Anti-inflammatory activity in C57BL/6 mouse model of LPS-induced acute lung injury assessed as decrease in total protein concentration in BALF at 10 mg/kg, ip treated for 3 days followed by LPS treatment after 1 hr post-compound administration on fourth day measured after 18 hrs post-LPS treatment; type: functional, organism-based; conditions: time 91.0 hrs
[30] = AUC (0 to t) in Sprague-Dawley rat at 3.5 mg/kg, po measured for 24 hrs by LC-MS/MS analysis; type: ADME, organism-based; conditions: in vivo
Mus musculus [31] = test: Anti-inflammatory activity in C57BL/6 mouse model of LPS-induced acute lung injury assessed as decrease in TNF-alpha mRNA level in lung at 10 mg/kg, ip treated for 3 days followed by LPS treatment after 1 hr post-compound administration on fourth day measured after 18 hrs post-LPS treatment by RT-qPCR analysis; type: functional, organism-based; conditions: time 91.0 hrs
RAW264.7 [32] = test: Anti-inflammatory activity against mouse RAW264.7 cells assessed as inhibition of LPS-induced p38 phosphorylation at 50 to 500 nM by Western blot analysis; type: functional, cell-based; conditions: dose 50-500 nM
RAW264.7 [33] = test: Anti-inflammatory activity against mouse RAW264.7 cells assessed as inhibition of LPS-induced IL-1beta level at 50 to 500 nM; type: functional, cell-based; conditions: dose 50-500 nM
RAW264.7 [34] = test: Anti-inflammatory activity against mouse RAW264.7 cells assessed as inhibition of LPS-induced IL-6 level

Structure (SMILES) | Cmax [1] [ng/mL] | Activity (Mus musculus [2]) | IC50 (Procathepsin L [3]) [nM] | Cmax [4] [ng/mL] | inhibition (Procathepsin L [5]) | Activity (RAW264.7 [6]) | half-life [7] [h] | IC50 (cells [8]) [nM] | Activity (Mus musculus [9]) | inhibition (RAW264.7 [10]) | inhibition (HBE [11]) | Activity (Mus musculus [12]) | IC50 (cells [13]) [nM] | inhibition at 5 µM [14] [%] | IC50 (RAW264.7 [15]) [nM] | half-life [16] [h] | AUC(0-inf) [17] [ng·h/mL] | inhibition (RAW264.7 [18]) | inhibition at 5 µM [19] [%] | AUC(0-inf) [20] [ng·h/mL] | other results
Cc1ccc(Nc2nccc(-c3cn(C)c4ccccc34)n2)cc1N.Cl | 504 | Active | 820 | 331 | Dose-dependent-effect | Non-toxic | 6.48 | 2080 | Active | Active | Dose-dependent-effect | Active | 1070 | 69 | 480 | 5.19 | 1580 | Active | 76 | 1050 | inhibition (RAW264.7 [21]): Dose-dependent-effect; AUC(0-inf) [22]: 1690 ng·h/mL; inhibition (HBE [23]): Dose-dependent-effect; inhibition (RAW264.7 [24]): Active; Cmax [25]: 193 ng/mL; AUC(0-t) at 24 h [26]: 1630 ng·h/mL; Activity (Mus musculus [27]): Active; Activity (Mus musculus [28]): Active; Activity (Mus musculus [29]): Active; AUC(0-t) at 24 h [30]: 830 ng·h/mL; Activity (Mus musculus [31]): Active; inhibition (RAW264.7 [32]): Active; Result Indicates Compound Suppresses Mapk Pathway; inhibition (RAW264.7 [33]): Active; IC50 (RAW264.7 [34]): 144 nM
Cl.Cn1cc(-c2ccnc(Nc3cccc(N)c3)n2)c2ccccc21 | 655 | Active | 690 | 193 | Dose-dependent-effect | Non-toxic | 3.21 | 1350 | Active | Active | Dose-dependent-effect | Active | 614 | 83 | 91.2 | 4.73 | 416 | Active | 85 | 159 | inhibition (RAW264.7 [21]): Dose-dependent-effect; AUC(0-inf) [22]: 680 ng·h/mL; inhibition (HBE [23]): Dose-dependent-effect; inhibition (RAW264.7 [24]): Active; Cmax [25]: 65.2 ng/mL; AUC(0-t) at 24 h [26]: 633 ng·h/mL; Activity (Mus musculus [27]): Active; Activity (Mus musculus [28]): Active; Activity (Mus musculus [29]): Active; AUC(0-t) at 24 h [30]: 157 ng·h/mL; Activity (Mus musculus [31]): Active; inhibition (RAW264.7 [32]): Active; Result Indicates Compound Suppresses Mapk Pathway; inhibition (RAW264.7 [33]): Active; IC50 (RAW264.7 [34]): 50.1 nM
